Results reported in ChEMBL document CHEMBL1201862, “PubChem BioAssay data set” (2004).
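The compound was tested at five concentrations on cells cultured in 96-well plates, with a 48-hour exposure period. At the GI50, growth is halved.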 Active and inactive are the calls of the source. Cut-off read from the data, not from the text of the source: active = GI50 up to about 1.1 µM and inactive = higher.

Tests used:
Experiment in all cases: growth of human tumour cells (NCI), 48 h
[1] = system: SW-620
[2] = system: NCI-H460
[3] = system: SR
[4] = system: RPMI-8226
[5] = system: NCI-H226
[6] = system: HOP-92
[7] = system: OVCAR-3
[8] = system: CAKI-1
[9] = system: COLO 205
[10] = system: KM12
[11] = system: UACC-62
[12] = system: SF-539
[13] = system: SK-MEL-5
[14] = system: HL-60
[15] = system: LOX IMVI
[16] = system: HOP-62
[17] = system: ACHN
[18] = system: Malme-3M
[19] = system: HCC 2998

Measured: GI50

Cc1cc2c(cc1Cl)SC(NS(=O)(=O)c1ccc(Cl)cc1)=NS2(=O)=O
inactive: [1] 41.6 µM | [2] 79.8 µM | [3] 10.3 µM | [4] 57 µM | [5] 33.5 µM | [6] 16 µM | [7] 19.3 µM | [8] > 100 µM | [9] > 100 µM | [10] > 100 µM | [11] > 100 µM | [12] 18.3 µM | [13] 46 µM | [14] > 100 µM | [15] 49.2 µM | [16] 98.6 µM | [17] > 100 µM

Cc1c(C(Cc2ccccc2N(C)C(=O)/C=C\C(=O)O)c2c[nH]c3ccccc23)c2ccccc2n1C (configuration not stated)
inactive: [18] 6.14 µM | [1] 18.1 µM | [2] 15.3 µM | [3] 16.9 µM | [5] 19.3 µM | [7] 12.3 µM | [8] 19.3 µM | [9] 14.5 µM | [10] 15.6 µM | [11] 17.2 µM | [12] 16.6 µM | [13] 14.9 µM | [14] 4.66 µM | [15] 15.3 µM | [19] 16.3 µM | [16] 16.2 µM | [17] 17.1 µM

COc1ccc2[nH]c3c(O)nncc3c2c1
inactive: [18] > 100 µM | [1] > 100 µM | [2] > 100 µM | [3] > 100 µM | [4] > 100 µM | [5] > 100 µM | [6] 35.1 µM | [7] > 100 µM | [9] > 100 µM | [10] > 100 µM | [11] 53.2 µM | [12] > 100 µM | [13] > 100 µM | [14] > 100 µM | [15] > 100 µM | [19] > 100 µM | [16] > 100 µM | [17] > 100 µM

O=[N+]([O-])c1ccc2c(c1)OCCOCCOc1ccc([N+](=O)[O-])cc1OCCOCCO2
inactive: [18] > 100 µM | [1] > 100 µM | [2] > 100 µM | [3] > 100 µM | [4] > 100 µM | [5] > 100 µM | [7] > 100 µM | [8] > 100 µM | [9] > 100 µM | [10] > 100 µM | [11] > 100 µM | [12] > 100 µM | [13] > 100 µM | [14] > 100 µM | [15] > 100 µM | [19] > 100 µM | [16] > 100 µM | [17] > 100 µM

Brc1ccc(/N=c2/nc3ccccn3n3nc(-c4ccccc4)cc23)cc1
inactive: [18] 4.34 µM | [1] 63.2 µM | [2] 45.1 µM | [3] > 100 µM | [4] > 100 µM | [5] 45.2 µM | [6] 17.8 µM | [7] 22.1 µM | [8] 15.9 µM | [9] > 100 µM | [10] 39.9 µM | [11] 15.1 µM | [12] 28.3 µM | [13] > 100 µM | [14] > 100 µM | [16] 15 µM | [17] 26.2 µM

C=CCCCN1CCCC(C)C1=S (configuration not stated)
inactive: [18] > 100 µM | [1] > 100 µM | [2] > 100 µM | [3] > 100 µM | [4] > 100 µM | [5] > 100 µM | [6] > 100 µM | [7] > 100 µM | [9] > 100 µM | [10] > 100 µM | [11] > 100 µM | [12] > 100 µM | [13] > 100 µM | [14] > 100 µM | [15] > 100 µM | [19] > 100 µM | [16] > 100 µM | [17] > 100 µM

Clc1ccc(C2=NOC3C4CCC(C4)C23)cc1 (configuration not stated)
inactive: [18] > 100 µM | [1] > 100 µM | [2] > 100 µM | [3] 61.2 µM | [4] 87.1 µM | [5] > 100 µM | [6] > 100 µM | [7] > 100 µM | [8] > 100 µM | [9] > 100 µM | [10] > 100 µM | [11] > 100 µM | [12] > 100 µM | [13] > 100 µM | [14] 56 µM | [19] > 100 µM | [16] > 100 µM | [17] > 100 µM

COC(=O)c1ccccc1NC(=O)C(=O)NNC(=O)c1ccncc1
inactive: [18] > 100 µM | [1] > 100 µM | [2] > 100 µM | [3] > 100 µM | [5] > 100 µM | [6] > 100 µM | [7] > 100 µM | [8] > 100 µM | [9] > 100 µM | [10] > 100 µM | [11] > 100 µM | [12] > 100 µM | [13] > 100 µM | [14] > 100 µM | [15] > 100 µM | [19] > 100 µM | [16] > 100 µM | [17] > 100 µM

Nc1ccc2c(c1)Oc1c(F)c(F)cc3c(=O)c(C(=O)O)cn-2c13
inactive: [18] 45.9 µM | [1] 41.3 µM | [3] 34.6 µM | [4] 25.2 µM | [6] 25.1 µM | [7] 22.1 µM | [8] 32.1 µM | [9] 45 µM | [10] 23.6 µM | [11] 31.3 µM | [12] 39.2 µM | [13] 17.1 µM | [14] 38.9 µM | [19] > 100 µM | [16] 31.7 µM

CC1(C)CC(=O)C(C(=O)C(=O)NC2=C(Cl)C(=O)c3ccccc3C2=O)C(=O)C1
inactive: [18] > 100 µM | [1] > 100 µM | [2] 51.2 µM | [3] 30.8 µM | [4] 34.8 µM | [5] 39.4 µM | [7] 58.6 µM | [8] 71.8 µM | [9] 38.7 µM | [10] 42.3 µM | [11] 45.5 µM | [12] > 100 µM | [13] 73.8 µM | [14] 20.1 µM | [15] 80.9 µM | [19] 45.4 µM | [16] > 100 µM | [17] 91.4 µM

CCc1ccccc1NC(=O)C(=O)CC(=O)c1sc(Nc2ccccc2)nc1C
inactive: [18] > 100 µM | [1] > 100 µM | [2] > 100 µM | [3] 99.3 µM | [5] > 100 µM | [6] > 100 µM | [7] 80.5 µM | [8] 85.9 µM | [9] > 100 µM | [10] > 100 µM | [11] 99.5 µM | [12] > 100 µM | [13] > 100 µM | [14] 89.1 µM | [15] > 100 µM | [19] > 100 µM | [16] > 100 µM | [17] > 100 µM
